Measured values taken from patent US20220257557A1, “PHARMACEUTICAL COMPOSITION FOR PREVENTING OR TREATING NEUROLOGICAL DISEASES” (GLACEUM INC., priority 2019, published 2022).

Tests used:
SH-SY5Y cells [1] = test: Intracellular ATP production after MPP+ mitochondrial damage; format: cell-based, Human; details: 1 mM MPP+ 24 h, then 0.0001-1 μM compound 24 h, FIG. 3
Experimental: (§1) Human neuronal SH-SY5Y cells were cultured in a 1:1 DMEM/F12 medium containing 10% FBS (fetal bovine serum) at 37° C. under 5% carbon dioxide and 95% air. The cultured cells were transferred to a 96-well cell culture plate at a density of 2*10^4 cells/well and cultured for 24 hours. Thereafter, after replacement with serum-restricted medium (1:1 DMEM/F12 medium containing 0.5% FBS), the cells were cultured for 16 hours. Then, the cultured cells were treated with 1 mM MPP+ (1-methyl-4-phenylpyridinium) and cultured for 24 hours, thus inducing mitochondrial dysfunction in the cells. […]
100 μl of the cell lysate of the culture obtained in Experimental Example 3-1 was mixed with 100 μl of luciferin-luciferase reaction buffer using an ATP bioluminescent somatic cell assay kit (Sigma-Aldrich), and the mixture was allowed to react at 20° C. for 10 minutes. Thereafter, the supernatant was obtained and the fluorescence intensity thereof was measured with an LB 9501 Lumat-Luminometer to confirm recovery from the decrease in intracellular ATP production caused by mitochondrial damage.
The fluorescence intensities of controls were measured in the same manner as the above-described method, except for using a sample to which DMSO was added (normal control) instead of MMP+ and the compound of Formula III-1 and a sample to which the compound of Formula III-1 was not added (negative control). […]

SH-SY5Y cells [2] = test: Mitochondrial reactive oxygen species (MitoSOX Red) after MPP+; format: cell-based, Human; details: 1 mM MPP+ 24 h, then 0.0001-1 μM compound 24 h, FIG. 5
Experimental: as §1
The level of reactive oxygen species generated in mitochondria was measured using a reduced fluorescent material called MitoSOX™ Red reagent.
Specifically, the culture obtained in Experimental Example 3-1 was treated with 50 μg of MitoSOX Red dissolved in 13 μl DMSO and was incubated at 37° C. for 1 hour. […] Then, the fluorescence intensity at an excitation wavelength of 510 nm and an emission wavelength of 595 nm was measured with a fluorescence analyzer to determine the level of reactive oxygen species generated in the mitochondria. […]
The concentration of MitoSOX Red determined from the fluorescence intensity was expressed as a percentage of the normal control.

BV2 cells [3] = test: NO and PGE2 production after LPS; format: cell-based; details: 3 h pretreatment (Table 3 amounts), LPS 1 μg/ml 24 h
Outline: (§2)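 RAW264.7 or BV2 cells (5×10^5 cells/well) in DMEM with 10% FBS were pretreated with compound, then stimulated with 1 μg/ml LPS for 24 h. iNOS and COX-2 expression by Western blot; NO and PGE2 production measured. Compound toxicity checked by MTT.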

RAW264.7 cells [4] = test: NO and PGE2 production after LPS; format: cell-based; details: 3 h pretreatment (Table 3 amounts), LPS 1 μg/ml 24 h
Outline: as §2

BV2 cells [5] = test: IL-1β, IL-6 and TNF-α mRNA expression after LPS (RT-PCR); format: cell-based; details: 3 h pretreatment (Table 3 amounts), LPS 1 μg/ml 6 h
Outline: (§3)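 Cells pretreated with test compounds (cytotoxicity checked by MTT), then stimulated with 1 μg/ml LPS for 6 h. IL-1β, IL-6 and TNF-α mRNA levels measured by RT-PCR.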

RAW264.7 cells [6] = test: as above; format: cell-based; details: 3 h pretreatment (Table 3 amounts), LPS 1 μg/ml 6 h
Outline: as §3

RAW264.7 cells [7] = test: Transcription of NF-κB protein (p65, p50) into nucleus after LPS (Western blot); format: cell-based; details: 3 h pretreatment (Table 3 amounts), LPS 1 μg/ml 1 h
Outline: (§4)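 Cells (5×10^5/well) cultured in DMEM with 10% FBS at 37° C, 5% CO2, pretreated with compound, then stimulated with 1 μg/ml LPS for 1 hour. Nuclear levels of p65 and p50 measured by Western blot.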

BV2 cells [8] = test: as above; format: cell-based; details: 3 h pretreatment (Table 3 amounts), LPS 1 μg/ml 1 h
Outline: as §4

CCOc1ccc(C2COc3c(ccc4c3CCC(C)(C)O4)C2)c(O)c1 (stereo not shown) [Formula III-1, 2-(8,8-dimethyl-2,3,4,8,9,10-hexahydropyrano[2,3-f]chromen-3-yl)-5-ethoxyphenol]
concentration-dependently decreased: production of NO (BV2 cells [3]) | production of PGE2 (BV2 cells [3]) | production of NO (RAW264.7 cells [4]) | production of PGE2 (RAW264.7 cells [4]) | mRNA expression level of IL-1β (BV2 cells [5]) | mRNA expression level of IL-6 (BV2 cells [5]) | mRNA expression level of TNF-α (BV2 cells [5]) | mRNA expression level of IL-1β (RAW264.7 cells [6]) | mRNA expression level of IL-6 (RAW264.7 cells [6]) | mRNA expression level of TNF-α (RAW264.7 cells [6]) | level of transcription of NF-κB protein into the nucleus, p50 (RAW264.7 cells [7]) | level of transcription of NF-κB protein into the nucleus, p65 (RAW264.7 cells [7]) | level of transcription of NF-κB protein into the nucleus, p50 (BV2 cells [8]) | level of transcription of NF-κB protein into the nucleus, p65 (BV2 cells [8])
recovery: decrease in ATP production caused by mitochondrial damage due to MPP+ (SH-SY5Y cells [1])
decreased: level of reactive oxygen species generated in the mitochondria (Mito-SOX) (SH-SY5Y cells [2])
